PubChem BioAssay (NCI)
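Grown in 96-well plates, cells were treated for 48 hours with each compound at five concentrations. Insufficient inhibition: endpoint recorded as highest concentration tested. The concentration for 50% growth inhibition is given as GI50. TGI marks complete inhibition of growth.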

Assays:
Assay in all cases: DTP human tumour cell line panel, 48 h
HCT-15 colon = test system: HCT-15 colon
RPMI-8226 leukemia = test system: RPMI-8226 leukemia
KM12 colon = test system: KM12 colon
MOLT-4 leukemia = test system: MOLT-4 leukemia
PC-3 prostate = test system: PC-3 prostate
IGROV1 ovarian = test system: IGROV1 ovarian
NCI-H460 lung = test system: NCI-H460 lung
HT29 colon = test system: HT29 colon
DU-145 prostate = test system: DU-145 prostate
LOX IMVI melanoma = test system: LOX IMVI melanoma
SNB-19 CNS = test system: SNB-19 CNS
SK-MEL-2 melanoma = test system: SK-MEL-2 melanoma
NCI-H226 lung = test system: NCI-H226 lung
HL-60(TB) leukemia = test system: HL-60(TB) leukemia
MDA-MB-468 breast = test system: MDA-MB-468 breast
K-562 leukemia = test system: K-562 leukemia
HOP-92 NSCLC = test system: HOP-92 NSCLC
SN12C renal = test system: SN12C renal
EKVX NSCLC = test system: EKVX NSCLC
ACHN renal = test system: ACHN renal
HS 578T breast = test system: HS 578T breast
OVCAR-5 ovarian = test system: OVCAR-5 ovarian
SR leukemia = test system: SR leukemia
MCF7 breast = test system: MCF7 breast
HCT-116 colon = test system: HCT-116 colon
NCI-H522 lung = test system: NCI-H522 lung
A549 NSCLC = test system: A549 NSCLC
UO-31 renal = test system: UO-31 renal
OVCAR-8 ovarian = test system: OVCAR-8 ovarian
SF-295 CNS = test system: SF-295 CNS
CCRF-CEM leukemia = test system: CCRF-CEM leukemia
A498 renal = test system: A498 renal
RXF 393 renal = test system: RXF 393 renal
UACC-257 melanoma = test system: UACC-257 melanoma
OVCAR-4 ovarian = test system: OVCAR-4 ovarian
TK-10 renal = test system: TK-10 renal
NCI-H23 lung = test system: NCI-H23 lung
786-0 renal = test system: 786-0 renal
SW-620 colon = test system: SW-620 colon
MALME-3M melanoma = test system: MALME-3M melanoma
UACC-62 melanoma = test system: UACC-62 melanoma
SK-OV-3 ovarian = test system: SK-OV-3 ovarian
CAKI-1 renal = test system: CAKI-1 renal
MDA-MB-435 = test system: MDA-MB-435
U251 CNS = test system: U251 CNS
SK-MEL-28 melanoma = test system: SK-MEL-28 melanoma
T-47D breast = test system: T-47D breast
SF-268 CNS = test system: SF-268 CNS
M14 melanoma = test system: M14 melanoma
COLO 205 colon = test system: COLO 205 colon
BT-549 breast = test system: BT-549 breast
OVCAR-3 ovarian = test system: OVCAR-3 ovarian
SK-MEL-5 melanoma = test system: SK-MEL-5 melanoma
HOP-62 NSCLC = test system: HOP-62 NSCLC
MDA-MB-231 breast = test system: MDA-MB-231 breast
HCC-2998 colon = test system: HCC-2998 colon
SF-539 CNS = test system: SF-539 CNS

CN(C)c1nc(NCCNS(=O)(=O)c2ccc(C(=O)/C=C/c3ccc(F)cc3)cc2)nc(N2CCOCC2)n1
GI50 (HCT-15 colon): 2.15 µM
TGI (HCT-15 colon): 4.92 µM
GI50 (RPMI-8226 leukemia): 1.91 µM
TGI (RPMI-8226 leukemia): 5.07 µM
GI50 (KM12 colon): 13.4 µM
TGI (KM12 colon): 30.6 µM
GI50 (MOLT-4 leukemia): 4.69 µM
TGI (MOLT-4 leukemia): > 100 µM
GI50 (PC-3 prostate): 11.2 µM
TGI (PC-3 prostate): 25.5 µM
GI50 (IGROV1 ovarian): 2.27 µM
TGI (IGROV1 ovarian): 6.18 µM
GI50 (NCI-H460 lung): 15.7 µM
TGI (NCI-H460 lung): 33 µM
GI50 (HT29 colon): 2.85 µM
TGI (HT29 colon): 8.39 µM
GI50 (DU-145 prostate): 14.4 µM
TGI (DU-145 prostate): 27.8 µM
GI50 (LOX IMVI melanoma): 1.63 µM
TGI (LOX IMVI melanoma): 3.17 µM
GI50 (SNB-19 CNS): 13.4 µM
TGI (SNB-19 CNS): 26.5 µM
GI50 (SK-MEL-2 melanoma): 13.7 µM
TGI (SK-MEL-2 melanoma): 26.8 µM
GI50 (NCI-H226 lung): 12.3 µM
TGI (NCI-H226 lung): 28.2 µM
GI50 (HL-60(TB) leukemia): 14.7 µM
TGI (HL-60(TB) leukemia): > 100 µM
GI50 (MDA-MB-468 breast): 8.08 µM
TGI (MDA-MB-468 breast): 22.6 µM
GI50 (K-562 leukemia): 3.7 µM
TGI (K-562 leukemia): > 100 µM
GI50 (HOP-92 NSCLC): 12.7 µM
TGI (HOP-92 NSCLC): 28.5 µM
GI50 (SN12C renal): 12 µM
TGI (SN12C renal): 24.4 µM
GI50 (EKVX NSCLC): 14.4 µM
TGI (EKVX NSCLC): 27.8 µM
GI50 (ACHN renal): 13.1 µM
TGI (ACHN renal): 26 µM
GI50 (HS 578T breast): 14.6 µM
TGI (HS 578T breast): 54.6 µM
GI50 (OVCAR-5 ovarian): 13.6 µM
TGI (OVCAR-5 ovarian): 26.8 µM
GI50 (SR leukemia): 3.45 µM
TGI (SR leukemia): > 100 µM
GI50 (MCF7 breast): 2.99 µM
TGI (MCF7 breast): 11.2 µM
GI50 (HCT-116 colon): 2.29 µM
TGI (HCT-116 colon): 5.25 µM
GI50 (NCI-H522 lung): 13.3 µM
TGI (NCI-H522 lung): 26.6 µM
GI50 (A549 NSCLC): 13.7 µM
TGI (A549 NSCLC): 27.9 µM
GI50 (UO-31 renal): 11 µM
TGI (UO-31 renal): 23 µM
GI50 (OVCAR-8 ovarian): 14.7 µM
TGI (OVCAR-8 ovarian): 28.2 µM
GI50 (SF-295 CNS): 11.3 µM
TGI (SF-295 CNS): 23.8 µM
GI50 (CCRF-CEM leukemia): 6.58 µM
TGI (CCRF-CEM leukemia): 39.1 µM
GI50 (A498 renal): 11.9 µM
TGI (A498 renal): 24.4 µM
GI50 (RXF 393 renal): 8.82 µM
TGI (RXF 393 renal): 21.2 µM
GI50 (UACC-257 melanoma): 15.5 µM
TGI (UACC-257 melanoma): 29.2 µM
GI50 (OVCAR-4 ovarian): 11.9 µM
TGI (OVCAR-4 ovarian): 24.7 µM
GI50 (TK-10 renal): 15.3 µM
TGI (TK-10 renal): 28.7 µM
GI50 (NCI-H23 lung): 14.6 µM
TGI (NCI-H23 lung): 28.1 µM
GI50 (786-0 renal): 14.5 µM
TGI (786-0 renal): 28.7 µM
GI50 (SW-620 colon): 3.39 µM
TGI (SW-620 colon): 12.3 µM
GI50 (MALME-3M melanoma): 14.6 µM
TGI (MALME-3M melanoma): 28.2 µM
GI50 (UACC-62 melanoma): 10.8 µM
TGI (UACC-62 melanoma): 23 µM
GI50 (SK-OV-3 ovarian): 13.8 µM
TGI (SK-OV-3 ovarian): 27.6 µM
GI50 (CAKI-1 renal): 9.5 µM
TGI (CAKI-1 renal): 21.9 µM
GI50 (MDA-MB-435): 11.6 µM
TGI (MDA-MB-435): 24.6 µM
GI50 (U251 CNS): 4.74 µM
TGI (U251 CNS): 16.7 µM
GI50 (SK-MEL-28 melanoma): 14.9 µM
TGI (SK-MEL-28 melanoma): 28.2 µM
GI50 (T-47D breast): 11.9 µM
TGI (T-47D breast): 33.5 µM
GI50 (SF-268 CNS): 15 µM
TGI (SF-268 CNS): 37.5 µM
GI50 (M14 melanoma): 15 µM
TGI (M14 melanoma): 30.5 µM
GI50 (COLO 205 colon): 14.6 µM
TGI (COLO 205 colon): 30.2 µM
GI50 (BT-549 breast): 15.1 µM
TGI (BT-549 breast): 29.2 µM
GI50 (OVCAR-3 ovarian): 14.6 µM
TGI (OVCAR-3 ovarian): 28.5 µM
GI50 (SK-MEL-5 melanoma): 15.7 µM
TGI (SK-MEL-5 melanoma): 29.2 µM
GI50 (HOP-62 NSCLC): 16.1 µM
TGI (HOP-62 NSCLC): 31.5 µM
GI50 (MDA-MB-231 breast): 12.3 µM
TGI (MDA-MB-231 breast): 25.3 µM
GI50 (HCC-2998 colon): 16 µM
TGI (HCC-2998 colon): 29.9 µM
GI50 (SF-539 CNS): 13.2 µM
TGI (SF-539 CNS): 25.9 µM
